Consider seven molecules from patent US20240277841A2, “HUMAN CHIMERIC ANTIGEN RECEPTOR NEUTROPHILS, COMPOSITIONS, KITS AND METHODS OF USE” (Purdue Research Foundation, priority 2020, published 2024).

In one series the test system is glioblastoma. Briefly: Tumor lysis by CAR neutrophils with inhibitors. The note with it: for glioblastoma viability: co-incubation with CAR neutrophils. The series is classed as cell-based.
The next series concerns TGFβ. Briefly: hPSC differentiation: endothelial-to-hematopoietic transition. The note with it: 10 μM from day 4. Format: cell-based, human. As to the method:
H9 was obtained from WiCell and maintained on Matrigel- or iMatrix 511-coated plates in mTeSR plus medium according to a previously published method. For differentiation, hPSCs were dissociated with 1 mM EDTA and seeded onto iMatrix 511-coated, 24-well plates at a cell density between 10,000 and 80,000 cells/cm^2 in mTeSR plus medium with 5 μM Y27632 for 24 hours (day −1). At day 0, cells were treated with 6 μM CHIR99021 (CHIR) in DMEM medium supplemented with 100 μg/mL ascorbic acid (DMEM/Vc), followed by a medium change with LasR basal medium at day 1, day 2, and day 3 and the addition of 50 ng/ml VEGF to the medium from day 2 to day 4. At day 4, medium was replaced by Stemline II medium (Sigma) supplemented with 10 μM SB431542. After 2 days, SB431542-containing medium was aspirated, and cells were maintained in Stemline II medium with 50 ng/mL SCF and FLT3L. At day 9 and day 12, the medium was aspirated and changed to Stemline II medium containing 50 ng/mL SCF and FLT3L and 25 ng/mL GM-CSF. At day 15, floating cells were gently harvested and used for terminal neutrophil differentiation. The floating cells were cultured in Stemline II medium supplemented with GlutaMAX 100X, ExCyte (0.2%), human G-CSF (150 ng/mL), and Am580 retinoic acid agonist (2.5 μM). After three days, the same medium with all components and cytokines was added to the top of the existing culture. […]

The test system of series [1] is neutrophil extracellular trap (NET) formation. As to conditions: 3 μg/ml or more.
The test system of a further series is invertebrates. The note with it: cited from earlier work.
Series [2] concerns glioblastomas and other tumors. The note with it: cited from earlier work.
For another series, the system named is mammals. The note with it: cited from earlier work.
The test system of the next series is tumor cells. As to the kind of experiment: Phagocytosis of tumor cells by neutrophils with inhibitor. The series is classed as cell-based. The note with it: 5 μM.
The subject of a further series is U87MG cells. As to the kind of experiment: Neutrophil infiltration of 3D tumor spheroids. As to conditions: pre-treating neutrophils. The series is classed as cell-based, human. The protocol: A 3-D biomimetic GBM model was constructed to mimic an in vivo tumor niche-like microenvironment with a dense, extracellular matrix and heterogeneous tumor cell subtypes.
Neutrophil infiltration of 3D tumor spheroids. The 3D tumor spheroids were obtained using the hanging drop method. Briefly, U87MG cells were suspended in MEM medium with 10% FBS and 0.3% methylcellulose at 2×10^6 cells/mL and deposited onto an inverted lid of 96-well plate as an individual drop using a 20 μL pipettor. The cover lid was then placed back onto the PBS-filled bottom chamber and incubated at 37° C. and 5% CO2. The hanging drops were monitored daily until cell aggregates were formed in ˜5-7 days. Each cell aggregate was transferred to a single well of a 24-well plate for the substream analysis. To assess the tumor penetration capability of CLTX T-CAR neutrophils, 2×10^5 neutrophils/well were added to the wells of 24-well plate and incubated with the tumor spheroids. After co-incubation for 24 hours, the tumor spheroids were fixed and stained for CD45 and DAPI. For the cytotoxicity analysis, the mixture of neutrophils and tumor spheroids were stained with 1 μM Calcein-AM and 1 μM propidium iodide (PI). The stained cells were then imaged using a Leica DMi-8 fluorescent microscope.

Series [3] has as its system day 15 myeloid progenitors. Briefly: Myeloid progenitor monocyte/macrophage potential by flow cytometry. Format: cell-based, human. As to conditions: compared to GM-CSF. As to the method:
Differentiated cells were gently pipetted and filtered through a 70 or 100 μm strainer sitting on a 50 mL tube. The cells were then pelleted by centrifugation and washed three times with PBS−/− solution containing 1% BSA. The cells were stained with appropriately conjugated antibodies for 25 min at room temperature in the dark and analyzed in an Accuri C6 plus cytometer (Beckton Dickinson) after washing with BSA-containing PBS−/− solution. Flow Jo software was used to process the collected flow data.
Flow cytometry analysis. Differentiated cells were gently pipetted and filtered through a 70 or 100 μm strainer sitting on a 50 mL tube. The cells were then pelleted by centrifugation and washed twice with PBS−/− solution containing 1% bovine serum albumin (BSA). The cells were stained with appropriate conjugated antibodies for 25 min at room temperature in dark, and analyzed in an Accuri C6 plus cytometer (Beckton Dickinson) after washing with BSA-containing PBS−/− solution. FlowJo software was used to process the collected flow data.
(Flow cytometry measures light scatter and fluorescence of single cells or particles in a stream.)

“Also recorded” adds a separate entry of the source.

Regarding `CC(=O)N[C@@H](CS)C(=O)O` [N-acetylcysteine], in the series on glioblastoma, the “tumor lysis by CAR neutrophils” value is on record as “significantly blocked” and the glioblastoma viability result is reported as “higher viability”.
Turning to `NC(=O)c1ccc(-c2nc(-c3ccc4c(c3)OCO4)c(-c3ccccn3)[nH]2)cc1` [SB431542], in the series on TGFβ, the “endothelial-to-hematopoietic transition (generation of CD45+CD43+ HSPCs)” value is reported as “promoted endothelial-to-hematopoietic transition; also recorded: promoted EHT process”.
As to `CC(C)c1cccc(C(C)C)c1O` [propofol], the “NET formation in neutrophils” value in [1] is on record as “significant decrease”. Further, in the series on glioblastoma, the “tumor lysis by CAR neutrophils” value is listed as “significantly blocked”.
Turning to chlorotoxin [CLTX], in the series with invertebrates, the toxicity to invertebrates result is reported as “highly toxic”. The tumor binding result in series [2] is recorded as “binds selectively”. Moreover, in the series with mammals, the toxicity to mammals result is “nontoxic”.
With `C=C1[C@@H](C)[C@H]2[C@H](Cc3ccccc3)NC(=O)[C@]23[C@H](OC(C)=O)/C=C/[C@@](C)(O)C(=O)[C@@H](C)C/C=C/[C@H]3[C@@H]1O` [cytochalasin D], the “phagocytosis of tumor cells by neutrophils” value with tumor cells is “significantly reduced”. In addition, in the series on glioblastoma, the “tumor lysis by CAR neutrophils” value is “significantly blocked” and the glioblastoma viability result is listed as “higher viability”. Moreover, in the series with U87MG cells, the “effect on tumor cytotoxicity of CAR-neutrophils” value is “significantly reduced” and the “effect on tumor-infiltrating activity of CAR-neutrophils” value is listed as “significantly reduced”.

B1: G-CSF: recombinant human granulocyte colony-stimulating factor (protein, UniProt P09919 31-207, looked up)
Granulocyte …: TPLGPASSLPQSFLLKCLEQVRKIQGDGAALQEKLVSECATYKLCHPEELVLLGHSLGIPWAPLSSCPSQALQLAGCLSQLHSGLFLYQGLLQALEGISPELGPTLDTLQLDVADFATTIWQQMEELGMAPALQPTQGAMPAFASAFQRRAGGVLVASHLQSFLEVSYRVLRHLAQP
Consider B1, for which the “number of CD14+ monocytes/macrophages” value in series [3] was “significantly decreased”.

B2: soluble MMP2: soluble matrix metallopeptidase 2 used to pre-treat neutrophils (protein, UniProt P08253 110-660, looked up)
72 kDa type IV collagenase: YNFFPRKPKWDKNQITYRIIGYTPDLDPETVDDAFARAFQVWSDVTPLRFSRIHDGEADIMINFGRWEHGDGYPFDGKDGLLAHAFAPGTGVGGDSHFDDDELWTLGEGQVVRVKYGNADGEYCKFPFLFNGKEYNSCTDTGRSDGFLWCSTTYNFEKDGKYGFCPHEALFTMGGNAEGQPCKFPFRFQGTSYDSCTTEGRTDGYRWCGTTEDYDRDKKYGFCPETAMSTVGGNSEGAPCVFPFTFLGNKYESCTSAGRSDGKMWCATTANYDDDRKWGFCPDQGYSLFLVAAHEFGHAMGLEHSQDPGALMAPIYTYTKNFRLSQDDIKGIQELYGASPDIDLGTGPTPTLGPVTPEICKQDIVFDGIAQIRGEIFFFKDRFIWRTVTPRDKPMGPLLVATFWPELPEKIDAVYEAPQEEKAVFFAGNEYWIYSASTLERGYPKPLTSLGLPPDVQRVDAAFNWSKNKKTYIFAGDKFWRYNEVKKKMDPGFPKLIADAWNAIPDNLDAVVDLQGGGHSYFFKGAYYLKLENQSLKSVKFGSIKSDWLGC
In the case of B2, in the series with U87MG cells, the “effect on tumor cytotoxicity of CAR-neutrophils” value is given as “significantly reduced” and the “effect on tumor-infiltrating activity of CAR-neutrophils” value is recorded as “significantly reduced”.
